In US6316423A, “Method of treating ischemic, hypoxic and anoxic brain damage” (priority 1999, dated 2001):

target: T1, Rat A1 adenosine receptor (Rattus norvegicus, UniProt P25099); experiment: Affinity for A1 adenosine receptors isolated from rats; format: binding; conditions: not given
T1 construct: A1 adenosine receptors isolated from rats; from tissue
T1 sequence (P25099 1-326): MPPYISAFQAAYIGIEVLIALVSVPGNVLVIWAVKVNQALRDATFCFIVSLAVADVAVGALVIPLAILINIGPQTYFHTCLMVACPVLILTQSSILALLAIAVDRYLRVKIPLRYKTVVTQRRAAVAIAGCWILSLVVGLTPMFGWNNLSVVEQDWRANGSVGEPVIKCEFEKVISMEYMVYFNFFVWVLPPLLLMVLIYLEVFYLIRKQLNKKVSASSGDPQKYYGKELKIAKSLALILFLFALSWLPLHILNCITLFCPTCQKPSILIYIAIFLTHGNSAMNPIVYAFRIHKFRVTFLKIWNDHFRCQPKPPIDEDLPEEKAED
Excerpt: These methods are known in the art. For example, the synthesis of these compounds can be guided by U.S. Pat. No. 5,248,770 or by Jacobson et al., Journal of Medicinal Chemistry, 28, 1341-1346 (1985).

`NCCCCNC(=O)Cc1ccc(NC(=O)Cc2ccc(Nc3ncnc4c3ncn4[C@@H]3O[C@H](CO)[C@@H](O)[C@H]3O)cc2)cc1` and `NCCCNC(=O)Cc1ccc(NC(=O)Cc2ccc(Nc3ncnc4c3ncn4[C@@H]3O[C@H](CO)[C@@H](O)[C@H]3O)cc2)cc1` are within error of each other in Ki: 1.91 ± 0.17 nM for the first, 1.96 ± 0.06 nM for the second.

`Cc1ccc(C(=O)NCCCNC(=O)Cc2ccc(NC(=O)Cc3ccc(Nc4ncnc5c4ncn5[C@@H]4O[C@H](CO)[C@@H](O)[C@H]4O)cc3)cc2)cc1` [compound 5] and `Cc1ccc(C(=O)NCCCCNC(=O)Cc2ccc(NC(=O)Cc3ccc(Nc4ncnc5c4ncn5[C@@H]4O[C@H](CO)[C@@H](O)[C@H]4O)cc3)cc2)cc1` [compound 6] are within 1.5-fold of each other in Ki: 5.67 ± 0.055 nM for the first, 7.95 ± 0.76 nM for the second.

Molecule `Cc1ccc(C(=O)NCCNC(=O)Cc2ccc(NC(=O)Cc3ccc(Nc4ncnc5c4ncn5[C@@H]4O[C@H](CO)[C@@H](O)[C@H]4O)cc3)cc2)cc1` [compound 4] has a Ki of 11.9 ± 2 nM.

system: adenosine A1 receptors; experiment: not given; conditions: cited from earlier work

In the case of `NC(=O)N1c2ccccc2C=Cc2ccccc21` [carbamazepine], the “antagonistic properties at adenosine A1 receptors” value is given as “marginal”.
